Results: PubChem BioAssay (NCI)
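Protocol summary: plate cells (96-well), add compound at 5 concentrations, incubate 48 h, interpolate endpoints linearly. GI50 is the concentration that inhibits growth by half. TGI: concentration producing complete growth inhibition.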

Legend:
Assay in all cases: DTP human tumour cell line panel, 48 h
[1] = test system: NCI-H460 lung
[2] = test system: EKVX NSCLC
[3] = test system: UACC-62 melanoma
[4] = test system: OVCAR-5 ovarian
[5] = test system: MCF7 breast
[6] = test system: SK-MEL-28 melanoma
[7] = test system: PC-3 prostate
[8] = test system: UO-31 renal
[9] = test system: HS 578T breast
[10] = test system: MOLT-4 leukemia

SMILES	GI50 [1] [µM]	TGI [1] [µM]	GI50 [2] [µM]	TGI [2] [µM]	GI50 [3] [µM]	TGI [3] [µM]	GI50 [4] [µM]	TGI [4] [µM]	GI50 [5] [µM]	TGI [5] [µM]	GI50 [6] [µM]	TGI [6] [µM]	GI50 [7] [µM]	TGI [7] [µM]	GI50 [8] [µM]	TGI [8] [µM]	GI50 [9] [µM]	TGI [9] [µM]	GI50 [10] [µM]	TGI [10] [µM]
COc1ccc(-c2n[nH]nc2-c2cc(OC)c3c(c2OC)OCO3)cc1	0.409	15.9	2.8	39.7	0.553	14	4.68	> 100	0.48	35.2	1.95	> 100	1.87	> 100	3.83	46.6	0.958	15	0.463	33.1
Cc1ccc(C2=NOC3=c4ccccc4=CSC3=C2c2ccc([N+](=O)[O-])cc2)cc1	16.9	> 100	24.4	93.6	14.5	31.3	25.2	> 100	11.1	88.8	> 100	> 100	14.3	65.3	27.8	> 100	22.9	94.9	> 100	> 100
COc1ccc2cc(-c3ccoc(=O)c3-c3cc(OC)c(OC)c(OC)c3)ccc2c1	0.0526	> 32	0.566	> 100	0.0536	> 100	0.369	> 100	0.0322	> 57.5	0.683	> 100	0.0521	> 100	0.1	> 100	0.134	> 100	0.161	> 51.1
CN(C)c1ccc2c(c1)Sc1cc(N(C)C)ccc1N2C(=O)c1ccccc1	20.5	> 100	13.2	> 100	17.5	> 100	> 100	> 100	37	> 100	43.1	> 100	12.9	> 100	8.23	> 100	10.8	57.4	38.1	> 100
Cc1ccc(NC(=O)/C=C/c2ccccc2)c(C(N)=O)c1	3.46	25.9	4.78	> 100	3.44	> 80.8	9.68	> 100	3.15	> 100	3.65	> 100	4.07	> 100	10.3	> 60	1.69	6.63	3.34	> 74.1
CN(C)CCCN1c2ccccc2CCc2ccc(Cl)cc21	4.46	19.1	10.9	26.4	1.61	3.31	4.07	16.2	1.76	3.66	1.61	3.07	2.98	15.4	5.17	19.7	10.6	77.1	3.07	11.1
O=C(NN1C(=O)CSC12CCCCC2)c1[nH]c2ccc(F)cc2c1-c1ccccc1	26.6	77.7	83	> 100	15.2	54.7	37.6	> 100	19.4	37.3	28.2	93.2	18.8	35.9	27.8	80.9	21.8	82.8	13.9	41.7
CC(C)(C)c1ccc(OCCCCCCN2CCNCC2)cc1	3.21	11.4	10.2	24.2	2.33	5.77	13.7	29.4	3.03	10.3	3.23	11.4	8.28	24.4	12.2	25.6	6.15	25.1	1.82	5.07
CCN(C(=O)N1CCN(c2cc3c(cc2F)c(=O)c(C(=O)O)cn3C2CC2)CC1)c1nc(-c2ccc(C)cc2)cs1	0.356	11.9	1.52	> 100	0.837	> 100	0.68	> 100	1.31	> 100	0.687	> 100	0.375	> 100	0.322	> 100	0.46	4.28	0.469	> 100
Cc1cc(N/N=C/c2nc(-c3ccc(Br)cc3)oc2C)c2cc(Cl)ccc2n1	> 100	> 100	> 100	> 100	> 100	> 100	> 100	> 100	> 100	> 100	> 100	> 100	> 100	> 100	> 100	> 100	> 100	> 100	> 100	> 100
C=CC(=O)N(C)[C@H]1C[C@H]2OC(C)(C1OC)n1c3ccccc3c3c4c(c5c6ccccc6n2c5c31)C(=O)NC4 (stereo not given in full)	0.0876	1.01	0.085	> 50	0.13	0.835	0.106	> 50	0.123	> 50	0.369	2.08	0.182	15.2	0.018	0.0854	0.0887	0.6	0.0773	0.899
CN(C)c1ccc(/C=C\c2cccc[n+]2C)cc1	15.2	> 100	0.489	> 100	19.8	58	19.2	> 100	4.52	> 100	14.8	81.7	3.04	> 100	6.43	> 100	16.2	> 100	38.4	> 100
COC(=O)Cn1c2c(c3c(O)cccc31)C(=O)c1ccccc1-2	> 100	> 100	> 100	> 100	> 100	> 100	> 100	> 100	> 100	> 100	> 100	> 100	> 100	> 100	> 100	> 100	> 100	> 100	> 100	> 100
COc1ccc(C(OCC2OC(n3ccc(NC(=O)c4ccccc4)nc3=O)C(O)C2O)(c2ccccc2)c2ccccc2)cc1 (stereo not given)	–	4.02	–	6.1	–	21	–	3.79	–	4.26	–	7.95	–	8.28	–	11.4	–	4.86	–	4.17
Cc1cc2c3ccc(C)[n+](C)c3ccc2n1C	3.9	28.8	0.456	13.6	8.97	22.6	5.42	44	4.07	90	6.05	19.5	1.26	9.11	3.79	> 100	3.17	24.3	3.12	27.4
O=C(O)C/C=C/CC(=O)O	–	> 100	–	> 100	–	> 100	–	> 100	–	> 100	–	> 100	–	> 100	–	> 100	–	> 100	–	> 100
COC(=O)C(Cc1ccccc1)NC(=O)NC(=O)NC(=O)CI (stereo not given)	22.6	50.1	11.9	25.3	12.3	26	13	29.7	4.2	28.5	3.5	13.8	17.3	33.1	1.83	3.44	34.3	> 100	2	5.21
C=CC(=O)Nc1cccc(C)c1Nc1cc(-c2cccnc2Cc2c(C)c(OC)cc(OC)c2C)ncn1	4.91	31.7	28.8	> 100	10.3	25.9	27.4	> 100	5.27	> 100	16.9	69.2	5.65	> 100	18.4	> 100	10.6	68.3	3.6	> 100
CNC(=O)OCc1c(COC(=O)NC)c(C)n(-c2ccc(Br)cc2)c1C	–	24.1	–	> 100	–	18.5	–	77.2	–	25.9	–	35.2	–	65.8	–	19.5	–	33.5	–	> 100
CCCn1c(C)nc2c1C(=O)c1ccccc1C2=O	20.4	57.3	18.9	70.8	22.1	67.7	> 100	> 100	30.9	> 100	> 100	> 100	11	> 100	9.06	60.8	17.8	> 100	19	> 100
O=C1C=C(Br)c2c(-c3ccccc3)oc3cccc1c23	–	> 100	–	> 100	–	> 100	–	> 100	–	> 100	–	> 100	–	> 100	–	> 100	–	> 100	–	> 67.8
Nc1ncnc2[nH]ncc12	2.1	> 100	2.6	> 79.9	0.512	3.48	0.765	> 100	0.435	> 100	2.77	99	0.526	> 55.7	0.232	0.916	7.32	> 100	2.64	> 100
C=CCOC1OC(CO[Si](C)(C)C(C)(C)C)C(OCc2ccccc2)C(OCc2ccccc2)C1OCc1ccccc1 (stereo not given)	–	> 100	–	> 100	–	> 100	–	> 100	–	> 100	–	> 100	–	> 100	–	> 100	–	> 100	–	> 100
C=C1CC[C@@H]2[C@](C)(COC(C)=O)[C@@H](O)CC[C@@]2(C)[C@@H]1COc1ccc2ccc(=O)oc2c1	> 100	> 100	> 100	> 100	> 100	> 100	> 100	> 100	> 100	> 100	> 100	> 100	> 100	> 100	> 100	> 100	29.9	> 100	> 100	> 100
CN1CCN(Cc2ccc(NC(=O)c3cncc(C#Cc4cnc(N)c5ccncc45)c3)cc2C(F)(F)F)CC1	0.374	5.81	1.44	> 16.8	0.227	1.86	0.855	> 50	1.93	8.92	0.245	2.18	1.77	9.18	0.918	2.49	0.286	1.98	0.328	8.68
COc1ccc(-c2cc(-c3ccccc3)nc(SCCCC(=O)NO)n2)cc1	0.468	5.65	1.66	8.07	0.756	2.53	0.979	6.09	1.9	10	1.25	3.12	1.61	8.39	0.239	0.991	1.66	9.27	0.758	10.9
O=C(N/N=C/c1ccc2c(c1)CCC2)c1ccccc1O	–	63.2	–	92.2	–	70.5	–	> 100	–	34	–	68.2	–	53.4	–	94.6	–	71	–	> 100
